Entries after “also recorded” stand apart in the source; their conditions may differ. Read-outs that look alike come from different tables or passages of the source.
Legend:
[1] = system: rat adjuvant arthritis; assay: Effect on the Development of Adjuvant Arthritis; assay type: in vivo, Fischer male rats; details: oral; for inhibition in vivo at 100 mg/kg / inhibition in vivo at 50 mg/kg: Rattus norvegicus, 504 h, 21 days after adjuvant, mean ± standard error
Procedure: Fischer male rats (8 weeks old; body weight 120-180 g) were grouped so that the average of body weights among the groups were nearly the same. Then, 0.1 ml of complete adjuvant obtained by suspending Mycobacterium butyricum (Difco Laboratories) in paraffin oil in a concentration of 6 mg/ml was injected into the footpad of the right hind paw to induce adjuvant arthritis.
Each of the test compounds was dissolved or suspended in a 1% gum arabic solution, and administered orally once a day on six days a week over a period of three weeks starting from the day of the adjuvant injection. The group administered with a 1% gum arabic solution instead of the test compound was served for a control. The volumes of both hind paws were measured plethysmographically by displacement of water at various times after injection of the adjuvant, and the percent paw edema inhibition was calculated from the following equation. [formula] Eexp : the percent paw edema in rats treated with the test compound Econt : the mean of percent paw edema in rats of the control group
The percent paw edema was calculated from the following equation. [formula] Vpost : the paw volume after treatment with the adjuvant Vpre : the paw volume before treatment with the adjuvant

[2] = in vivo; details: mouse, oral, mice died within a week, probit method
Procedure: ddY male mice (body weight about 23 g) were fasted overnight, and the test compound dissolved or suspended in a 1% gum arabic solution administered orally. From the number of mice died within a week, the LD50 value was calculated by the probit method.

[3] = system: Delayed-Type Hypersensitivity (DTH), enhanced immune reaction; assay: Effect on Delayed-Type Hypersensitivity (DTH): enhanced immune reaction; assay type: in vivo, BALB/c male mice; details: for Footpad swelling inhibition / Footpad swelling: oral, cyclophosphamide 75 mg/kg; for Footpad swelling: mean ± standard error
Procedure: Three days after the sensitization, 0.05 ml of 8×10^9 /ml SRBC was injected into the footpad of the right hind paw for elicitation of DTH. Twenty four hours later, footpad swelling (mm) was measured in the same way as in (A) above, and the inhibition (%) of footpad swelling was calculated from the following equation.
The test compound was dissolved or suspended in a 1% gum arabic solution, and administered orally once a day over a period of 7 days starting from four days before the sensitization (immediately after administration of cyclophosphamide). To a control group, a 1% gum arabic solution was administered instead of the test compound. The group, administered with physiological saline instead of cyclophosphamide and a 1% gum arabic solution instead of test compound respectively, was served for a normal group. [formula] Tcont : the mean of the footpad swelling in mice of the control group Texp : the mean of the footpad swelling in mice treated with the test compound
Tnor : the mean of the footpad swelling in mice of the normal group.

[4] = system: Delayed-Type Hypersensitivity (DTH), normal immune reaction; assay: Effect on Delayed-Type Hypersensitivity (DTH): normal immune reaction; assay type: in vivo, BALB/c male mice; details: for Footpad swelling inhibition / Footpad swelling: oral, normal immune reaction; for Footpad swelling: mean ± standard error
Procedure: BALB/c male mice (8 weeks old) were sensitized by injection into the tail vein with 0.2 ml of 5×10^6 /ml sheep red blood cells (SRBC). Three days after the sensitization, 0.05 ml of 8×10^9 /ml SRBC was injected into the footpad of the right hind paw for elicitation of DTH. Footpad thickness was measured immediately before and 24 hours after the elicitation with a dial thickness gauge. The level of DTH was expressed as footpad swelling (mm) at 24 hour. The inhibition (%) of footpad swelling was calculated from the following equation.
The test compound was dissolved or suspended in a 1% gum arabic solution, and administered orally once a day over a period of 7 days starting from four days before the sensitization. To a control group, a 1% gum arabic solution was administered instead of the test compound. [formula] Texp : the mean of the footpad swelling in mice treated with the test compound
Tcont : the mean of the footpad swelling in mice of the control group

[5] = system: rat carrageenin-induced paw edema; assay: rat carrageenin-induced paw edema (acute inflammation); assay type: in vivo; details: 100 mg/kg
[6] = system: rat mustard-induced paw edema; assay: rat mustard-induced paw edema (subacute inflammation); assay type: in vivo; details: 100 mg/kg
[7] = 100 mg/kg, read-out: Paw edema inhibition, Non-treated paw
[8] = 100 mg/kg, read-out: Paw edema inhibition, Treated paw
[9] = 3 mg/kg, ** P < 0.01 vs control
[10] = 10 mg/kg, ** P < 0.01 vs control
[11] = 30 mg/kg, * P < 0.05, ** P < 0.01 vs control
[12] = 100 mg/kg, * P < 0.05 vs control

Structure (SMILES): CC(=O)Oc1ccc2sc(-c3ccc(C)cc3)nc2c1 [A, 5-acetoxy-2-(4-methylphenyl)benzothiazole]
- inhibition in vivo at 100 mg/kg [1, 7]: 4.5 ± 11.7%
- inhibition in vivo at 100 mg/kg [1, 8]: 12.9 ± 4.4%

Structure (SMILES): CC(=O)Oc1ccc2nc(-c3ccc(C)cc3)sc2c1 [B, 6-acetoxy-2-(4-methylphenyl)benzothiazole]
- inhibition in vivo at 100 mg/kg [1, 7]: 4.4 ± 14.2%
- inhibition in vivo at 100 mg/kg [1, 8]: -7.6 ± 8.8%

Structure (SMILES): CC(=O)Oc1cccc2nc(-c3ccc(C)cc3)sc12 [C, 7-acetoxy-2-(4-methylphenyl)benzothiazole]
- inhibition in vivo at 100 mg/kg [1, 7]: 8.9 ± 10.4%
- inhibition in vivo at 100 mg/kg [1, 8]: 16.6 ± 4.1%

Structure (SMILES): CC(=O)Oc1cccc2sc(-c3ccc(C)cc3)nc12 [Example 5, 4-Acetoxy-2-(4-methylphenyl)benzothiazole]
- LD50 at 168 h [2]: > 3000 mg/kg
- Footpad swelling inhibition ([3]; 1 mg/kg): 57.1%
- Footpad swelling ([3]; 1 mg/kg, * P < 0.05 vs control): 37 ± 5 × 10^-2 mm
- Footpad swelling inhibition ([3]; 3 mg/kg): 66.7%
- Footpad swelling [3, 9]: 35 ± 1 × 10^-2 mm
- Footpad swelling inhibition ([3]; 10 mg/kg): 85.7%
- Footpad swelling [3, 10]: 31 ± 3 × 10^-2 mm
- Footpad swelling inhibition ([3]; 30 mg/kg): 76.2%
- Footpad swelling [3, 11]: 33 ± 2 × 10^-2 mm
- Footpad swelling inhibition ([3]; 100 mg/kg): 57.1%
- Footpad swelling [3, 12]: 37 ± 4 × 10^-2 mm
- inhibition in vivo at 100 mg/kg [1, 7]: 32 ± 7.7%
- inhibition in vivo at 100 mg/kg [1, 8]: 31.8 ± 3.9%
- Footpad swelling inhibition ([4]; 1 mg/kg): 0.0%
- Footpad swelling ([4]; 1 mg/kg): 59 ± 5 × 10^-2 mm
- Footpad swelling inhibition ([4]; 3 mg/kg): -6.8%
- Footpad swelling ([4]; 3 mg/kg): 63 ± 6 × 10^-2 mm
- Footpad swelling inhibition ([4]; 10 mg/kg): 3.4%
- Footpad swelling ([4]; 10 mg/kg): 57 ± 6 × 10^-2 mm
- Footpad swelling inhibition ([4]; 30 mg/kg): -8.5%
- Footpad swelling ([4]; 30 mg/kg): 64 ± 6 × 10^-2 mm
- Footpad swelling inhibition ([4]; 100 mg/kg): 10.2%
- Footpad swelling ([4]; 100 mg/kg): 53 ± 4 × 10^-2 mm

Structure (SMILES): COc1ccc(-c2nc3c(OC(C)=O)cccc3s2)cc1 [Example 6, 4-Acetoxy-2-(4-methoxyphenyl)benzothiazole]
- LD50 at 168 h [2]: > 3000 mg/kg
- inhibition in vivo at 100 mg/kg [1, 7]: 27.4 ± 10.8%
- inhibition in vivo at 100 mg/kg [1, 8]: 24.7 ± 3.7%

Structure (SMILES): CC(=O)Oc1cccc2sc(-c3ccc(C(=O)O)cc3)nc12 [Example 7, 4-(4-Acetoxybenzothiazol-2-yl)benzoic acid]
- LD50 at 168 h [2]: 2020 mg/kg
- inhibition in vivo at 100 mg/kg [1, 7]: 38.5 ± 6%
- inhibition in vivo at 100 mg/kg [1, 8]: 29.9 ± 2.9%

Structure (SMILES): COC(=O)c1ccc(-c2nc3c(OC(C)=O)cccc3s2)cc1 [Example 8, Methyl 4-(4-acetoxybenzothiazol-2-yl)benzoate]
- LD50 at 168 h [2]: > 3000 mg/kg
- inhibition in vivo at 100 mg/kg [1, 7]: 28.6 ± 8.8%
- inhibition in vivo at 100 mg/kg [1, 8]: 29.3 ± 3.6%

Structure (SMILES): O=C([O-])c1ccccc1Nc1cc(Cl)ccc1C(=O)[O-].[Na+].[Na+] [Lobenzarit disodium, N-(2-carboxyphenyl)-4-chloroanthranilic acid disodium salt]
- Footpad swelling inhibition ([3]; 1 mg/kg): 20.0%
- Footpad swelling ([3]; 1 mg/kg, * P < 0.05 vs control): 47 ± 3 × 10^-2 mm
- Footpad swelling inhibition ([3]; 3 mg/kg): 40.0%
- Footpad swelling [3, 9]: 43 ± 3 × 10^-2 mm
- Footpad swelling inhibition ([3]; 10 mg/kg): -10.0%
- Footpad swelling [3, 10]: 53 ± 3 × 10^-2 mm
- Footpad swelling inhibition ([3]; 30 mg/kg): 50.0%
- Footpad swelling [3, 11]: 41 ± 3 × 10^-2 mm
- Footpad swelling inhibition ([3]; 100 mg/kg): 50.0%
- Footpad swelling [3, 12]: 41 ± 3 × 10^-2 mm
- effect on DTH in an enhanced immune reaction (in words) ([3]; any doses): suppresses an abnormally enhanced immune reaction
- death during the test ([1]; 100 mg/kg, adjuvant arthritis rats, footnote of Table 1): Four animals out of 16
- inhibition in vivo at 50 mg/kg ([1]; read-out: Paw edema inhibition, Non-treated paw): -9 ± 12%
- inhibition in vivo at 50 mg/kg ([1]; read-out: Paw edema inhibition, Treated paw): 6.3 ± 5.3%
- inhibition in vivo at 100 mg/kg [1, 7]: -1.7 ± 11.4%
- inhibition in vivo at 100 mg/kg [1, 8]: 15.1 ± 6.6%
- Footpad swelling inhibition ([4]; 1 mg/kg): 4.3%
- Footpad swelling ([4]; 1 mg/kg): 67 ± 2 × 10^-2 mm
- Footpad swelling inhibition ([4]; 3 mg/kg): 8.6%
- Footpad swelling ([4]; 3 mg/kg): 64 ± 5 × 10^-2 mm
- Footpad swelling inhibition ([4]; 10 mg/kg): -8.6%
- Footpad swelling ([4]; 10 mg/kg): 76 ± 6 × 10^-2 mm
- Footpad swelling inhibition ([4]; 30 mg/kg): 7.1%
- Footpad swelling ([4]; 30 mg/kg): 65 ± 4 × 10^-2 mm
- Footpad swelling inhibition ([4]; 100 mg/kg): 7.1%
- Footpad swelling ([4]; 100 mg/kg): 65 ± 5 × 10^-2 mm
- effect on DTH in a normal immune reaction (in words) ([4]; any doses, disodium salt): did not inhibit footpad swelling at any doses; also recorded: no effect on a normal immune reaction
- effect on rat carrageenin-induced paw edema [5]: no effect
- effect on rat mustard-induced paw edema [6]: no effect

Source: patent US4910211A, “Novel benzothiazole and antirheumatic agent comprising it as an active ingredient” (Kanebo Ltd., priority 1987, dated 1990)
